Experimental data from patent US7195890B2, “Methods and compositions for modulating proteins modified in preconditioning against ischemia/hypoxia” (Queen's University at Kingston, priority 2003, dated 2007).

System: rabbit ventricular myocytes
Experiment: Two-dimensional gel electrophoresis proteomic analysis of protein modifications in pharmacologically preconditioned isolated ventricular myocytes
Assay type: cell-based
Details: 100 μmol/L, 60 minutes, 37° C.; for level of ADP ribosyl hydrolase: drug treated extracts relative to matching control extracts
Source text: Protein modifications occurring during preconditioning were identified by a multi-tiered two-dimensional gel electrophoresis approach (see FIG. 3) and subsequent analysis of the cytoplasmic and TFA extracts of adenosine and diazoxide-treated isolated cardiomyocytes (n=4) at concentrations capable of invoking preconditioning. […] The modified proteins identified herein are referred to as preconditioning proteins. Ventricular myocytes from New Zealand White rabbits (weighing 1 to 2 kg) were isolated by collagenase dissociation, as described previously by Liu et al. (Circ. Res. 1996 78:443–454). Hearts were excised, then perfused with collagenase (1.0 mg/mL, Worthington type II) for 14 minutes at a maintained perfusion pressure of 75 mm Hg on a Langendorff apparatus, yielding>50% Ca^2+-tolerant ventricular myocytes. Cell isolation was followed directly by pharmacological preconditioning, which was carried out by treatment with 100 μmol/L adenosine (Sigma) or with 100 μmol/L diazoxide (Sigma) for 60 minutes in a 37° C. water bath, as described previously by Liu et al. supra. Untreated cells were prepared concurrently as drug-free controls. Equivalent 25 μL aliquots of cells (containing ˜30 mg/mL of protein as determined by Lowry assay (Lowry, O. H. J. Biol. Chem. 1951 193:265–275) were frozen and stored at −80° C. until analysis. All steps in this Protein extraction protocol, referred to herein as “In Sequence” and depicted in FIG. 3, produce physiological pH (cytosolic) and acidic pH enriched extracts were carried out at 4° C., and all centrifugations were conducted at 16000×g for 2 minutes at 4° C. Myocyte proteins were first extracted by two rounds of homogenization in 100 μL of HEPES extraction buffer, consisting of (in mmol/L) HEPES 25 (pH 7.4), NaF 50, Na3VO4 0.25, phenylmethylsulfonyl fluoride 0.25, EDTA 0.5, and (in μmol/L) leupeptin 1.25, pepstatin A 1.25. Following homogenization and centrifugation, the supernatants were pooled and saved as the cytosolic extract. The remaining pellet was subjected to further extraction by two rounds of homogenization in 50 μL of acid extraction buffer, consisting of 1% v/v trifluoroacetic acid (TFA) and 1 mmol/L Tris(2-carboxyethylphosphine)hydrochloride (pH ˜2.0). Supernatants were again pooled, and saved as the acid extract. The two extracts and remaining pellet were frozen and stored at −80° C. Isoelectric focusing (IEF) of cytosolic and TFA extracts were carried out using a Protean® IEF cell (Bio-Rad) according to the manufacturer's protocol. Protein loads ranging from 5 up to 250 μg per gel were added to the following rehydration buffers: for cytosolic extracts, 8 M urea, 2.5 M thiourea, 4% CHAPS, 2 mM EDTA, and 25 mM DTT, and in the case of pH 6–9 strips, CHAPS and DTT were substituted by 4% ASB-14 and 5.4% (w/v) 2-hydroxyethyl disulfide, respectively; for acidic extracts, 8 M urea, 4% CHAPS, and 25 mM DTT. Immobilized pH gradient (IPG) Ready Strips™ (170 mm pH 4–7, 6–9, or 3–10 linear gradient, Bio-Rad) were actively rehydrated at 50 volts (V) for 10 hours to enhance protein uptake, then subjected to the following conditions using a rapid voltage ramping method: 100 V for 25 Volt-hours (Vh), 500 V for 125 Vh, 1000 V for 250 Vh, and 8000 V for 65 kVh. A Peltier temperature control platform maintained gels at 20° C. throughout IEF. Focused gels were stored at −20° C. prior to sodium dodecyl sulfate-polyacrylamide gel electrophoresis (SDS-PAGE). For SDS-PAGE, IPG strips were incubated for 10 minutes in equilibration buffer (50 mmol/L Tris-HCl, pH 8.8, 6 mol/L urea, 30% v/v glycerol, 2% w/v SDS) supplemented with 10 mg/mL DTT, followed by a 10 minute incubation in equilibration buffer supplemented with 25 mg/mL iodoacetamide, then rinsed once with SDS-PAGE buffer (25 mmol/L Tris, 192 mmol/L glycine, pH 8.3, 0.1% w/v SDS). IEF strips were then embedded in a 5% acrylamide stacking gel and the proteins were resolved by 10 or 12.5% SDS-PAGE using a Protean® II XL system (Bio-Rad). […]

[1] = 2-D gels vs untreated control myocytes, n=4

Q: For `Nc1ncnc2c1ncn2[C@@H]1O[C@H](CO)[C@@H](O)[C@H]1O` [adenosine], which “level of 24 kDa subunit (mitochondrial precursor) of Complex I” value [1] is on record?
A: increases

Q: And the “level of 30 kDa subunit (mitochondrial precursor) of Complex I” value [1]?
A: increases

Q: And the “level of HSP27” value [1]?
A: did not, however, observe a change

Q: What about the “level of NG-dimethylarginine dimethylaminohydrolase (DDAH)” value [1] of the same compound?
A: decreases

Q: And the “level of RNA binding protein regulatory subunit (DJ-1)” value [1]?
A: increased

Q: And the “level of aldehyde dehydrogenase” value [1]?
A: increased

Q: What about the “level of core protein I of Complex III” value [1] of the same compound?
A: decreased

Q: What about the “level of isocitrate dehydrogenase NAD+ specific subunit alpha (IDH)” value [1] of the same compound?
A: increase

Q: And the “level of metaxin 2” value [1]?
A: reduced

Q: And the level of prohibitin [1]?
A: increase

Q: What about the “level of succinyl CoA ligase [ADP forming] beta chain” value [1] of the same compound?
A: increase

Q: What about the “level of δ chain (mitochondrial precursor) of the F1 portion of Complex V” value [1] of the same compound?
A: increases

Q: What about the “extent of post-translational modification of the β chain of F1 portion (mitochondrial precursor) of Complex V” value (2-D gels, silver stain or western blot, vs control, two additional more acidic spots) of the same compound?
A: increase

Q: And the “level of ADP ribosyl hydrolase” value?
A: increased

Q: For `CC1=NS(=O)(=O)c2cc(Cl)ccc2N1` [diazoxide], which “level of 23 kDa subunit (mitochondrial precursor) of Complex I” value [1] is on record?
A: increased

Q: And the “level of 24 kDa subunit (mitochondrial precursor) of Complex I” value [1]?
A: increased

Q: And the “level of 30 kDa subunit (mitochondrial precursor) of Complex I” value [1]?
A: increased

Q: What about the “level of HSP27” value [1] of the same compound?
A: increase

Q: And the “level of NG-dimethylarginine dimethylaminohydrolase (DDAH)” value [1]?
A: increased

Q: What about the “level of RNA binding protein regulatory subunit (DJ-1)” value [1] of the same compound?
A: increased

Q: What about the “level of aldehyde dehydrogenase” value [1] of the same compound?
A: increased

Q: And the “level of core protein I of Complex III” value [1]?
A: decreased

Q: And the “level of d chain (mitochondrial precursor) of the F0 portion of Complex V” value [1]?
A: increased

Q: What about the “level of dihydrolipoamide succinyltransferase” value [1] of the same compound?
A: decrease

Q: And the “level of isocitrate dehydrogenase NAD+ specific subunit alpha (IDH)” value [1]?
A: increases

Q: And the “level of metaxin 2” value [1]?
A: reduced

Q: What about the “level of δ chain (mitochondrial precursor) of the F1 portion of Complex V” value [1] of the same compound?
A: increased

Q: And the “post-translational modification of protein X (E3 binding protein of the pyruvate dehydrogenase complex)” value [1]?
A: increases

Q: And the “sarcalumenin (58 kDa isoform) levels” value (HEPES extract, 2-D gels vs untreated control myocytes)?
A: decrease

Q: And the “level of ADP ribosyl hydrolase” value?
A: increased
